The values that follow come from patent EP4316482A1, “LEVODOPA FOR PREVENTING ADDICTION” (4P-Pharma, priority 2022, dated 2024).

Holding throughout (assay type): in vivo
Assay [1] concerns C57B1/6J mice. Put plainly: Observation of mice activity: methylphenidate-induced hyperactivity (Example 1). The conditions noted are these: male mice, IP, methylphenidate 10 mg/kg, levodopa 17 mg/kg, 5 minutes session 15 minutes after treatment, Mean ± SEM, n=6; for horizontal activity: line crossings; for vertical activity: rearing or climbing. The method, then: • Species / Strain: Mice / C57B1/6J • Gender / Number / Age: Male / 24 / 8 weeks at study initiation • Source: Janvier Labs, France
The Test items and vehicle were administered via intraperitoneal injections according to Table 2. Table 2 - Study design
(§1) Mice were subj ected to a behavioral test to evaluate their activity 15 minutes after treatment administration (5 minutes session). Mice were acclimated to the surrounding for 15 minutes before the beginning of the test. At the appropriate time after treatment administration, mice (1 per cage) were placed in the middle of a polyethylene cage measuring 17 × 32 × 14 cm without stainless steel top grill (no access to food or drinking water), without bedding and with a line drawn at the bottom of the cage. Activity was then monitored during 5 minutes session at 15 minutes after treatment administration, measuring different parameters: • Horizontal activity: the number of times the mice crossed the line drawn at the bottom of the cage during the session was recorded to assess horizontal activity levels. • Vertical activity: the number of rearing or climbing was recorded to assess vertical activity levels.

The test system of assay [2] is C57B1/6J mice. Put plainly: Observation of mice activity: methylphenidate-induced hyperactivity, levodopa/carbidopa (Example 2). The conditions noted are these: male mice, IP, methylphenidate 20 mg/kg, levodopa (carbidopa) 17(1,7) mg/kg, 5 minutes session 15 minutes after treatment, Mean ± SEM, n=6. The method, then: • Species / Strain: Mice / C57B1/6J • Gender / Number / Age: Male / 24 / 9 weeks at study initiation • Source: Janvier Labs, France
The Test items and vehicle were administered via intraperitoneal injections according to Table 3. Table 3 - Study design
as §1

The subject of assay [3] is C57B1/6J mice. The assay is described as follows: Hyperactivity and behavioral sensitization induced by methylphenidate: distance travelled in drug sessions (Example 3). The conditions noted are these: male mice, IP; methylphenidate 3 mg/kg, levodopa (carbidopa) 8,5(0,85) or 17(1,7) mg/kg; four 30 minutes drug sessions; n=9. The method, then: • Species / Strain: Mice / C57B1/6J • Gender / Number / Age: Male / 36 / 6-8 weeks at study initiation • Source: Janvier Labs, France
The Test items and vehicle were administered via intraperitoneal injections according to Table 4. Table 4 - Study design
Mice were subj ected to a behavioral test to evaluate their activity 30 minutes after treatment administration. Mice received an administration of vehicle and were placed in the apparatus (20 cm wide, 40 cm large, 40 cm high) for the habituation session (30 minutes). After, 4 drug sessions were performed on days 2, 4, 8 and 10 or on days 3, 5, 9 and 11. Mice were injected with one of the tested drugs (or vehicle) immediately before being placed in the box. Mice activity was then monitored during 30 minutes session after treatment administration, measuring: distance travelled in the compartment in the four sessions.

The subject of assay [4] is C57B1/6J mice. The assay is described as follows: Behavioral sensitization test for methylphenidate addiction/dependence (Example 4). The conditions noted are these: methylphenidate 10 mg/kg, Mean ± SEM; for locomotor activity (total distance travelled) / horizontal activity: female and male mice, IP, levodopa/carbidopa 17/1.7 mg/kg; for locomotor activity (total distance travelled): 20 minutes session; for horizontal activity: line crossings. The protocol:
• Species / Strain: Mice / C57B1/6J • Gender / Number / Age: Male / 30 / 9 weeks at study initiation and Female / 35 / 9 weeks at study initiation • Source: Janvier Labs, France
The Test items and vehicle were administered via intraperitoneal injections according to Table 5. Table 5 - Study design
Mice were subjected to a behavioral test to evaluate their activity after treatment or vehicle administration. Mice (1 per cage) were placed in the center of a polyethylene cage without stainless steel top grill (no access to food or drinking water), without bedding and with a line drawn at the bottom of the cage. First, mice were acclimated to the surrounding and video-recorded for 10 minutes before the beginning of the test to analyse the baseline motor activity (total distance travelled). Second, mice were injected with test item or vehicle and acclimated for another 5 minutes and activity was again monitored and video recorded during a 20 minutes session. The 10 minutes video containing basal activity and the 20 minutes video after treatment administration were analysed using the ezTracker-master software. Horizontal activity was also measured. It represents the number of times the mice crossed the line drawn at the bottom of the cage. Animals are submitted to 6 sessions (3 sessions/week on Monday, Wednesday and Friday). During session 1, all mice receive an administration of vehicle. During sessions 2-5, groups 1F/1M receive an injection of vehicle; groups 2F/2M receive methylphenidate injection, groups 3F/3M receive levodopa/carbidopa injection and groups 4F/4M receive levodopa/carbidopa and methylphenidate injections. And during session 6, all mice receive an administration of methylphenidate.

Setting [5] is: day 3, development of behavioral sensitization.
[6] abbreviates: day 10, development of behavioral sensitization.

For the molecule `N[C@@H](Cc1ccc(O)c(O)c1)C(=O)O` [levodopa, L-3,4-dihydroxyphenylalanine], in the assay with C57B1/6J mice [1], the horizontal activity was found to be 17±4 counts and the vertical activity turned out to be 24±7 counts.
On to `COC(=O)C(c1ccccc1)C1CCCCN1` (stereo not drawn) [methylphenidate, Methylphenidate], for which the horizontal activity in the assay on C57B1/6J mice [1] is given as 49±11 counts; in the assay with C57B1/6J mice [2] (line crossings), 62±24 counts; in the assay on C57B1/6J mice [4] (setting [5]) it was 259,69±115,51 counts; in the assay with C57B1/6J mice [4] (setting [6]), 420,38±137,05 counts. Moreover, the vertical activity with C57B1/6J mice [1] is on record as 42±16 counts; in the assay with C57B1/6J mice [2] (rearing or climbing) it was 59±10 counts. In addition, the “distance travelled during drug sessions” value with C57B1/6J mice [3] is recorded as “increased the distance travelled during drug sessions compared to vehicle-treated group”. Also, the “locomotor activity (total distance travelled)” value was 127,39±38,76 meters with C57B1/6J mice [4] (setting [5]) and 185,70±41,44 meters with C57B1/6J mice [4] (setting [6]). For the same molecule, the “locomotor activity before treatment administration (baseline motor activity)” value with C57B1/6J mice [4] (experimental day 12, 10 minutes baseline session before injection, after chronic treatment, levodopa/carbidopa 17/1.7 mg/kg IP) is listed as 28,35±7,43 meters.
